The structures appear in SMILES notation. Residues, ends and D or L forms follow the SMILES beside them.

For this data set, the system named is neutrophils. Briefly: neutrophil viability, trypan blue exclusion. The format is cell-based. As to conditions: FIGURE 3. The source says:
In addition, CT-112 (SEQ. ID NO: 1) was not cytotoxic to neutrophils, as determined by viability testing using trypan blue exclusion (FIGURE 3).

In the case of `CC(C)[C@H](NC(=O)[C@H](CCC(N)=O)NC(=O)[C@H](CO)NC(=O)[C@@H](NC(=O)[C@@H](N)[C@@H](C)O)[C@@H](C)O)C(=O)N[C@@H](CCCNC(=N)N)C(=O)N1CCC[C@H]1C(=O)N[C@@H](CCCNC(=N)N)C(=O)O` [CT-112, Thr-Thr-Ser-Gln-Val-Arg-Pro-Arg] (H-TTSQVRPR-OH), the “cytotoxicity to neutrophils, viability” value was “not cytotoxic”.

(Values after patent EP0714404B1, “ANTI-INFLAMMATORY PEPTIDES” (CURATIVE TECHNOLOGIES, INC., priority 1993, dated 1995).)
